Legend:
[1] = Plasma PK of comparative compound without sulfur moiety in male CD1 mice; format: in vivo, mouse; details: Mesylate Salt
Description: Formulation: 10% DMSO, 90% Saline
Dosing: 10 mg/kg P.O. and 5 mg/kg I.V.

[2] = target: T1, PI3K p110δ (Homo sapiens, UniProt O00329); assay: IC50 determination, HTRF biochemical assay (Reaction Biology Corp.)
T1 construct: assay run at Proqinase GmbH
Description: (§1) Biochemical activity against class I PI3K isoforms was confirmed by either Ki determination using the non-radiometric ADP-Glo™ assay (Promega, Madison, Wis., USA) at Proqinase GmbH, or IC50 determination using the HTRF biochemical assay at Reaction Biology Corp.

[3] = target: T2, PI3K p110α (Homo sapiens, UniProt P42336); assay: as above
T2 construct: assay run at Proqinase GmbH
Description: as §1

[4] = target: T3, PI3K p110β (Homo sapiens, UniProt P42338); assay: as above
T3 construct: assay run at Proqinase GmbH
Description: as §1

[5] = target: T4, PI3K p110γ (Homo sapiens, UniProt P48736); assay: as above
T4 construct: assay run at Proqinase GmbH
Description: as §1

[6] = Plasma PK of Example B, oral bioavailability and clearance in male Balb/c mice; format: in vivo, mouse; details: Mesylate Salt
Description: Animals in Group 2 were administered with oral solution formulation of Example B in 5% NMP, 5% Solutol HS and 90% of 20% HPβCD at a dose of 10 mg/kg. Dosing: 10 mg/kg P.O. and 3 mg/kg I.V.

[7] = target: T1, PI3K p110δ; assay: Ki determination, non-radiometric ADP-Glo assay (Proqinase GmbH); format: biochemical
Description: as §1

[8] = target: T2, PI3K p110α; assay: as above; format: biochemical
Description: as §1

[9] = target: T3, PI3K p110β; assay: as above; format: biochemical
Description: as §1

[10] = target: T4, PI3K p110γ; assay: as above; format: biochemical
Description: as §1

[11] = Plasma PK of compound K of WO 2011/021038 in male Balb/c mice; format: in vivo, mouse; details: for F: PO 10 mg/kg vs IV 3 mg/kg, male Balb/c mouse
Description: Animals in Group 1 were administered intravenously with compound K solution formulation in 5% NMP, 5% solutol HS-15 and 90% normal saline via tail vein at a dose of 3 mg/kg.
Animals in Group 2 were administered with oral solution formulation of compound K in 5% NMP, 5% solutol HS-15 and 90% normal saline at a dose of 10 mg/kg;
Dosing: 10 mg/kg P.O. and 3 mg/kg I.V.

[12] = IV, 5 mg/kg, male CD1 mouse plasma
[13] = IV, 3 mg/kg, male Balb/c mouse plasma
[14] = IV, 3 mg/kg, male Balb/c mouse plasma, read-out: Vss
[15] = PO, 10 mg/kg, male Balb/c mouse plasma

T2 sequence (P42336 whole entry): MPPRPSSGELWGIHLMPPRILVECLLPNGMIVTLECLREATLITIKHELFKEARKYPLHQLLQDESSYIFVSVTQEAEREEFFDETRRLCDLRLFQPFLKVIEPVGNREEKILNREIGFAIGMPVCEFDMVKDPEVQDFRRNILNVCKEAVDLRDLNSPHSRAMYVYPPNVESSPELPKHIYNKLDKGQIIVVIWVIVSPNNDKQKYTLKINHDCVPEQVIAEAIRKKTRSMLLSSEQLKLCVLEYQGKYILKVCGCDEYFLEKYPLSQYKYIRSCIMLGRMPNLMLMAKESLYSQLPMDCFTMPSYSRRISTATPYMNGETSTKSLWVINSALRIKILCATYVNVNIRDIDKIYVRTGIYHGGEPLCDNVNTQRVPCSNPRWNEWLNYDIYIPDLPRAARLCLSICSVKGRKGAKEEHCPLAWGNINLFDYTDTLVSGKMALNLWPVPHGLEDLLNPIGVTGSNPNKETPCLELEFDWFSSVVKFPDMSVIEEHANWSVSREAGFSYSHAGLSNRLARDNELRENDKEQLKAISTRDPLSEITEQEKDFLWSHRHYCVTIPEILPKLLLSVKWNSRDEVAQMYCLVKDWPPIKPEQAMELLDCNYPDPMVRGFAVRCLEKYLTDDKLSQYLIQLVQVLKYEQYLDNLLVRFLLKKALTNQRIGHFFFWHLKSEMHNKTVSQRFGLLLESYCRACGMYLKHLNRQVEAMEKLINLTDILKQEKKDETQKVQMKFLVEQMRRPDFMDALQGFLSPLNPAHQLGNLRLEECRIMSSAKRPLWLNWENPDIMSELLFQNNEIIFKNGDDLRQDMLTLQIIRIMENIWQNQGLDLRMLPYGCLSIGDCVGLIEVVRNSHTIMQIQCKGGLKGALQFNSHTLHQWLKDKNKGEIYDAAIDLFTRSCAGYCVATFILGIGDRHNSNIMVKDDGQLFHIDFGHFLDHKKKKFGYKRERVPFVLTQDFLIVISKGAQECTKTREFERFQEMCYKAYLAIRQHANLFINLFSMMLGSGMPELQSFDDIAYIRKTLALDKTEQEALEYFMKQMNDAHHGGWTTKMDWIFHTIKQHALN
T2 sequence (P27986 whole entry partner): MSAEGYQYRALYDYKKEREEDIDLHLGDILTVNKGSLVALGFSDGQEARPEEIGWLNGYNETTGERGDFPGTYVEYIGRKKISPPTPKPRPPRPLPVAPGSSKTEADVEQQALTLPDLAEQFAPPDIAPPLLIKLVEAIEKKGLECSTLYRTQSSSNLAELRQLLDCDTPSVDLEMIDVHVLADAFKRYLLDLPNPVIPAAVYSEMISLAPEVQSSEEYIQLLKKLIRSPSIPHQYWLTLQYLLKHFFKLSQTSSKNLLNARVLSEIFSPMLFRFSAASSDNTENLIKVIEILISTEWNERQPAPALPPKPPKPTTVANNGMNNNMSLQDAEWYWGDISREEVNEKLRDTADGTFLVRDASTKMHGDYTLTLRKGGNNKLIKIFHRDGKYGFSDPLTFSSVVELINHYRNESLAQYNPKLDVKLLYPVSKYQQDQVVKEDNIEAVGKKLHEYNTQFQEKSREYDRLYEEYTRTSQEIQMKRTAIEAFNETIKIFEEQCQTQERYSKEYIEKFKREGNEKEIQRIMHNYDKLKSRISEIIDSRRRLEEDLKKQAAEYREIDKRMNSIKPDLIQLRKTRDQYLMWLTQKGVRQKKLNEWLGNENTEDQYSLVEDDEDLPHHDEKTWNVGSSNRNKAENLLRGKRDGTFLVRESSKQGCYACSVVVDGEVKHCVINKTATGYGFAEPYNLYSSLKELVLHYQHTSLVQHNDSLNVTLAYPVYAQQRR
T1 sequence (O00329 whole entry): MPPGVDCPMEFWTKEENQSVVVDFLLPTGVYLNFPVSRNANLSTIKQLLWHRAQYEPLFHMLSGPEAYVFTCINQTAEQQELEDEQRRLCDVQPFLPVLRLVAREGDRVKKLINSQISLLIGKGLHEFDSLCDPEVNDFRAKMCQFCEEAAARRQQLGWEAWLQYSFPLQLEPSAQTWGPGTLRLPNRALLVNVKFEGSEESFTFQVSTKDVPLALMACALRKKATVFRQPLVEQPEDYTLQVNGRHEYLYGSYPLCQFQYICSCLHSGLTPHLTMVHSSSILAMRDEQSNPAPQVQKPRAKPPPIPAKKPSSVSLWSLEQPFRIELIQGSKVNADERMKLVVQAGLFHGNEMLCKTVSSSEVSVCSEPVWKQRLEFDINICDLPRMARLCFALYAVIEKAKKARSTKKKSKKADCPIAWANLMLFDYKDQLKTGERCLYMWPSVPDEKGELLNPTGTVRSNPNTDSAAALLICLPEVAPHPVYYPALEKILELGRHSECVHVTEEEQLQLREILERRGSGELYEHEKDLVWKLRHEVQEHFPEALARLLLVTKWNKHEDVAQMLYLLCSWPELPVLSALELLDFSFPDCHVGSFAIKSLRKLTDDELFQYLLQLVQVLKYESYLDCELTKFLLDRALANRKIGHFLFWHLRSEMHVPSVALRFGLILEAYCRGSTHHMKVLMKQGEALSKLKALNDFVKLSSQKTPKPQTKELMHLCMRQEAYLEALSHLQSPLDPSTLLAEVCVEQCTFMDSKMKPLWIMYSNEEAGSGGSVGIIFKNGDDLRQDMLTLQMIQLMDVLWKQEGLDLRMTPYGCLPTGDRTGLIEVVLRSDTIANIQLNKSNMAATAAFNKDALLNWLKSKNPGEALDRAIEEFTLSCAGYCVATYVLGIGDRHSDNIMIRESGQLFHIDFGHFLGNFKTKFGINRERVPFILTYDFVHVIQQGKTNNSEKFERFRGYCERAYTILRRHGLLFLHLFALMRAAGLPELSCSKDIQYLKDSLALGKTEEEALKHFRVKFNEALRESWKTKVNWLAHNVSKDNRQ
T1 sequence (P27986 whole entry partner): as the sequence (P27986 whole entry partner) above
T4 sequence (P48736 whole entry): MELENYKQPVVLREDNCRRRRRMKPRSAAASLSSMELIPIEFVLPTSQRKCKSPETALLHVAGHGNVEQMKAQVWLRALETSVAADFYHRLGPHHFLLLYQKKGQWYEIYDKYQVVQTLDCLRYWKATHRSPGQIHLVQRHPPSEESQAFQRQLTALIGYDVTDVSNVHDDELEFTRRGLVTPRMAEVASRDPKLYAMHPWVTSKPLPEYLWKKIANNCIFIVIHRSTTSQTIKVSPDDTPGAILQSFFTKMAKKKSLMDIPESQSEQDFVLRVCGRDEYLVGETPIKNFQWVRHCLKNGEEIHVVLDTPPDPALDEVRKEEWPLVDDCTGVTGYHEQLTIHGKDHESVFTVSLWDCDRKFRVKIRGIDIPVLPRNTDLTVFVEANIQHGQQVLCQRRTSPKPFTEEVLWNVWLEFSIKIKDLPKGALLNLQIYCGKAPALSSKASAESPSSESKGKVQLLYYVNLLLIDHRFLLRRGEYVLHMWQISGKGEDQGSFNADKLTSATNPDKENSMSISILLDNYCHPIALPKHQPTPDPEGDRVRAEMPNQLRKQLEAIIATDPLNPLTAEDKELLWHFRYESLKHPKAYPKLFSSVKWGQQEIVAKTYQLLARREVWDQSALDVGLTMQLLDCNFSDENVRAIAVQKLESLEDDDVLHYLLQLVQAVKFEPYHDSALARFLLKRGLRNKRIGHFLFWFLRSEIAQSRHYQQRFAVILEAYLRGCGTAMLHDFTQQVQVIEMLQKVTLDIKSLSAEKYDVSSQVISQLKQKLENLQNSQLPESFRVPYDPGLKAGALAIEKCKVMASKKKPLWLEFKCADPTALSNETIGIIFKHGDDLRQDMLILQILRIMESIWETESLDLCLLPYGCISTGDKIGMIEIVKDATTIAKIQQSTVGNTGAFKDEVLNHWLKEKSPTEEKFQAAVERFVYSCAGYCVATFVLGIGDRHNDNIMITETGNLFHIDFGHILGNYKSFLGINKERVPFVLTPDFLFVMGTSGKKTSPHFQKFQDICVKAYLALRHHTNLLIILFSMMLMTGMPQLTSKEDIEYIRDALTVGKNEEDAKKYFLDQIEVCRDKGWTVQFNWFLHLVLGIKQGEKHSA
T3 sequence (P42338 whole entry): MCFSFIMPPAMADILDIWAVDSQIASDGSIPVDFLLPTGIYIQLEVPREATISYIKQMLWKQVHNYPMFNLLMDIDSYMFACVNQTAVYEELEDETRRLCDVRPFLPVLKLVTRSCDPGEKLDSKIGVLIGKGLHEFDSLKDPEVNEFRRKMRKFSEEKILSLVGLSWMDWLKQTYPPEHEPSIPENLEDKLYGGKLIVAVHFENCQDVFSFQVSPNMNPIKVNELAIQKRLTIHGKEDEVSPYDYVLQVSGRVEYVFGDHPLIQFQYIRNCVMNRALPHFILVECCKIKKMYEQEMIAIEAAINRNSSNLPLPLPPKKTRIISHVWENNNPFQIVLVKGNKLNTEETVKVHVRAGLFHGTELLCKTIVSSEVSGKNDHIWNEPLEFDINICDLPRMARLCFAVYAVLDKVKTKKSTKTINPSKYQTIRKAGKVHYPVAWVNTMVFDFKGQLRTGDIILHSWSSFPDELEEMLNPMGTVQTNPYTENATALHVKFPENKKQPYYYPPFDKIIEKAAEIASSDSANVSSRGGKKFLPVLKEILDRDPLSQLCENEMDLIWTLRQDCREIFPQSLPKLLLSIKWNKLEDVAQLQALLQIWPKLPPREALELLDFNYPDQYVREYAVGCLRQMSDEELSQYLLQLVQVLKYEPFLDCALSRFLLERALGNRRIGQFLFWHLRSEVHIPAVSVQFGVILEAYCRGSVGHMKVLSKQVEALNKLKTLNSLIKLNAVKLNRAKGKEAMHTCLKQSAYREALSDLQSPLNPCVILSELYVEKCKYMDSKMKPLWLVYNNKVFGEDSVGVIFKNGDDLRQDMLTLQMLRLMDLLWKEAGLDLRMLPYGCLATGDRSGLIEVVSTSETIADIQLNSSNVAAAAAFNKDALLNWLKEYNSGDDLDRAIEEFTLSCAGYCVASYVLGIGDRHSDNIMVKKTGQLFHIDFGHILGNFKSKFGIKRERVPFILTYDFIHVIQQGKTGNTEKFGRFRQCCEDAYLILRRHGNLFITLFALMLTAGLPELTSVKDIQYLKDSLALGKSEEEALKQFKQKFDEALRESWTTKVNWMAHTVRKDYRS
T3 sequence (P27986 whole entry partner): as the sequence (P27986 whole entry partner) above

| Structure (SMILES) | IC50 [2] [µM] | IC50 [3] [µM] | IC50 [4] [µM] | IC50 [5] [µM] | Ki [7] [µM] | Ki [8] [µM] | Ki [9] [µM] | Ki [10] [µM] | other results |
| --- | --- | --- | --- | --- | --- | --- | --- | --- | --- |
| c1cc(-c2nc(N3CCOCC3)c3oc4ncc(CN5CCCCC5)cc4c3n2)c2cc[nH]c2c1 | – | – | – | – | – | – | – | – | AUClast [1, 12]: 1245 ng·mL·h; clearance [1, 12]: 66.1 mL/min/kg; bioavailability ([1]; plasma, PO 10 mg/kg vs IV 5 mg/kg, male CD1 mouse): 27.8% |
| O=S1(=O)CCCN(Cc2cnc3oc4c(N5CCOCC5)nc(-c5cccc6[nH]ccc56)nc4c3c2)CC1 [Example AA, 4-{[4-(1H-indol-4-yl)-6-(morpholin-4-yl)-8-oxa-3,5,10-triazatricyclo[7.4.0.0^2,^7]trideca-1(13),2(7),3,5,9,11-hexaen-12-yl]methyl}-1λ^6,4-thiazepane-1,1-dione] | ≤ 0.5 | ≤ 0.5 | ≤ 0.5 | 0.5 to 1 | – | – | – | – | – |
| O=S1(=O)CC2(CN(Cc3cnc4oc5c(N6CCOCC6)nc(-c6cccc7[nH]ccc67)nc5c4c3)C2)C1 [Example AB, 6-{[4-(1H-Indol-4-yl)-6-(morpholin-4-yl)-8-oxa-3,5,10-triazatricyclo[7.4.0.0^2^,7]trideca-1(13),2(7),3,5,9,11-hexaen-12-yl]methyl}-2λ^6-thia-6-azaspiro[3.3]heptane-2,2-dione] | ≤ 0.5 | ≤ 0.5 | ≤ 0.5 | 0.5 to 1 | – | – | – | – | – |
| c1cc(-c2nc(N3CCOCC3)c3oc4ncc(CN5CCSC5)cc4c3n2)c2cc[nH]c2c1 [Example AC, 4-(1H-Indol-4-yl)-6-(morpholin-4-yl)-12-[(1,3-thiazolidin-3-yl)methyl]-8-oxa-3,5,10-triazatricyclo[7.4.0.0^2^,7]trideca-1(13),2(7),3,5,9,11-hexaene] | ≤ 0.5 | ≤ 0.5 | ≤ 0.5 | ≤ 0.5 | – | – | – | – | – |
| CS(=O)(=O)CCNCc1cnc2oc3c(N4CCOCC4)nc(-c4cccc5[nH]ccc45)nc3c2c1 [Example AD, {[4-(1H-Indol-4-yl)-6-(morpholin-4-yl)-8-oxa-3,5,10-triazatricyclo[7.4.0.0^2^,7]trideca-1(13),2(7),3,5,9,11-hexaen-12-yl]methyl}(2-methanesulfonylethyl)amine] | ≤ 0.5 | ≤ 0.5 | ≤ 0.5 | ≤ 0.5 | – | – | – | – | – |
| CCS(=O)(=O)CCN(C)Cc1cnc2oc3c(N4CCOCC4)nc(-c4cccc5[nH]ccc45)nc3c2c1 [Example AE] | ≤ 0.5 | ≤ 0.5 | ≤ 0.5 | ≤ 0.5 | – | – | – | – | – |
| c1cc(-c2nc(N3CCOCC3)c3oc4ncc(CN5CCSCC5)cc4c3n2)c2cc[nH]c2c1 [Example AF, 4-(1H-indol-4-yl)-6-(morpholin-4-yl)-12-[(thiomorpholin-4-yl)methyl]-8-oxa-3,5,10-triazatricyclo[7.4.0.0^2^,7]trideca-1(13),2(7),3,5,9,11-hexaene] | ≤ 0.5 | ≤ 0.5 | ≤ 0.5 | 0.5 to 1 | – | – | – | – | – |
| [O-][S+]1CCN(Cc2cnc3oc4c(N5CCOCC5)nc(-c5cccc6[nH]ccc56)nc4c3c2)CC1 [Example B, 4-{[4-(1H-Indol-4-yl)-6-(morpholin-4-yl)-8-oxa-3,5,10-triazatricyclo[7.4.0.0^2,7]trideca-1(13),2(7),3,5,9,11-hexaen-12-yl]methyl}-1λ^4-thiomorpholin-1-one] | – | – | – | – | ≤ 0.5 | 0.5 to 1 | ≤ 0.5 | 1 to 10 | AUC(0-inf) [6, 13]: 2940 ng·h/mL; AUClast [6, 13]: 2802.91 ng·mL·h; Cmax [6, 13]: 5320 ng/mL; clearance [6, 13]: 17 mL/min/kg; half-life [6, 13]: 206 min; Vd [6, 14]: 1.44 L/kg; AUC(0-inf) [6, 15]: 7700 ng·h/mL; AUC(0-t) [6, 15]: 7690 ng·h/mL; Cmax [6, 15]: 3830 ng/mL; Tmax [6, 15]: 30 min; bioavailability ([6]; plasma, PO 10 mg/kg vs IV 3 mg/kg, male Balb/c mouse): 82% |
| N#Cc1cc(-c2nc(N3CCOCC3)c3oc4ncc(CN5CC[S+]([O-])CC5)cc4c3n2)c2cc[nH]c2c1 [Example R, 4-[6-(morpholin-4-yl)-12-[(1-oxo-1λ^4-thiomorpholin-4-yl)methyl]-8-oxa-3,5,10-triazatricyclo[7.4.0.0^2,^7]trideca-1(13),2(7),3,5,9,11-hexaen-4-yl]-1H-indole-6-carbonitrile] | – | – | – | – | > 10 | > 10 | > 10 | > 10 | – |
| [O-][S+]1CCN(Cc2cnc3oc4c(N5CCOCC5)nc(-c5c(Cl)ccc6[nH]ccc56)nc4c3c2)CC1 [Example T, 4-{[4-(5-Chloro-1H-indol-4-yl)-6-(morpholin-4-yl)-8-oxa-3,5,10-triazatricyclo[7.4.0.0^2,7]trideca-1(9),2,4,6,10,12-hexaen-12-yl]methyl}-1λ^4-thiomorpholin-1-one] | – | – | – | – | ≤ 0.5 | 1 to 10 | ≤ 0.5 | > 10 | – |
| [O-][S+]1CCN(Cc2cnc3oc4c(N5CCOCC5)nc(-c5c(Cl)ccc6c5CCN6)nc4c3c2)CC1 [Example U, 4-{[4-(5-Chloro-2,3-dihydro-1H-indol-4-yl)-6-(morpholin-4-yl)-8-oxa-3,5,10-triazatricyclo[7.4.0.0^2,7]trideca-1(9),2,4,6,10,12-hexaen-12-yl]methyl}-1λ^4-thiomorpholin-1-one] | – | – | – | – | ≤ 0.5 | > 10 | 1 to 10 | > 10 | – |
| Cc1ccc2c(c1-c1nc(N3CCOCC3)c3oc4ncc(CN5CC[S+]([O-])CC5)cc4c3n1)CCN2 [Example V, 4-{[4-(5-Methyl-2,3-dihydro-1H-indol-4-yl)-6-(morpholin-4-yl)-8-oxa-3,5,10-triazatricyclo[7.4.0.0^2,7]trideca-1(9),2,4,6,10,12-hexaen-12-yl]methyl}-1λ^4-thiomorpholin-1-one] | – | – | – | – | ≤ 0.5 | > 10 | 1 to 10 | > 10 | – |
| N#Cc1ccc2[nH]ccc2c1-c1nc(N2CCOCC2)c2oc3ncc(CN4CC[S+]([O-])CC4)cc3c2n1 [Example W, 4-[6-(morpholin-4-yl)-12-[(1-oxo-1λ^4-thiomorpholin-4-yl)methyl]-8-oxa-3,5,10-triazatricyclo[7.4.0.0^2,^7]trideca-1(9),2,4,6,10,12-hexaen-4-yl]-1H-indole-5-carbonitrile] | – | – | – | – | ≤ 0.5 | ≤ 0.5 | ≤ 0.5 | > 10 | – |
| O=C(O)c1ccc2[nH]ccc2c1-c1nc(N2CCOCC2)c2oc3ncc(CN4CC[S+]([O-])CC4)cc3c2n1 [Example X, 4-[6-(morpholin-4-yl)-12-[(1-oxo-1λ^4-thiomorpholin-4-yl)methyl]-8-oxa-3,5,10-triazatricyclo[7.4.0.0^2,^7]trideca-1(13),2(7),3,5,9,11-hexaen-4-yl]-1H-indole-5-carboxylic acid] | – | – | – | – | > 10 | > 10 | > 10 | > 10 | – |
| CC(C)Oc1ccc2[nH]ccc2c1-c1nc(N2CCOCC2)c2oc3ncc(CN4CC[S+]([O-])CC4)cc3c2n1 [Example Y, 4-{[6-(Morpholin-4-yl)-4-[5-(propan-2-yloxy)-1H-indol-4-yl]-8-oxa-3,5,10-triazatricyclo[7.4.0.0^2^,7]trideca-1(9),2,4,6,10,12-hexaen-12-yl]methyl}-1λ^4-thiomorpholin-1-one] | – | – | – | – | ≤ 0.5 | 0.5 to 1 | ≤ 0.5 | 1 to 10 | – |
| [O-][S+]1CCN(Cc2cnc3oc4c(N5CCOCC5)nc(-c5c(OC(F)(F)F)ccc6[nH]ccc56)nc4c3c2)CC1 [Example Z, 4-{[6-(Morpholin-4-yl)-4-[5-(trifluoromethoxy)-1H-indol-4-yl]-8-oxa-3,5,10-triazatricyclo[7.4.0.0^2^,7]trideca-1(9),2,4,6,10,12-hexaen-12-yl]methyl}-1λ^4-thiomorpholin-1-one] | – | – | – | – | ≤ 0.5 | ≤ 0.5 | ≤ 0.5 | 0.5 to 1 | – |
| c1cc(-c2nc(N3CCOCC3)c3oc4ncc(CN5CCOCC5)cc4c3n2)c2cc[nH]c2c1 [compound K in WO 2011/021038] | – | – | – | – | – | – | – | – | AUC(0-inf) [11, 13]: 2690 ng·h/mL; AUClast [11, 13]: 2654.15 ng·mL·h; Cmax [11, 13]: 2980 ng/mL; clearance [11, 13]: 18.6 mL/min/kg; half-life [11, 13]: 79.8 min; Vd [11, 14]: 1.81 L/kg; F [11]: 55%; F ([11]; listed as Example K from W02011/021038 (comparative)): 50%; AUC(0-inf) [11, 15]: 5140 ng·h/mL; AUC(0-t) [11, 15]: 4890 ng·h/mL; Cmax [11, 15]: 1720 ng/mL; Tmax [11, 15]: 15 min |

Reference: patent US10442815B2, “Tricyclic heterocyclic compounds as phosphoinositide 3-kinase inhibitors” (Karus Therapeutics Limited, priority 2015, dated 2019)
